Here are results for 32 molecules from ChEMBL document CHEMBL4007489, “First Bispecific Inhibitors of the Epidermal Growth Factor Receptor Kinase and the NF-κB Activity As Novel Anticancer Agents” (J Med Chem, 2017).

Test [1] relates to MDA-MB-231. Briefly: cells. It is filed as functional. As to conditions: Homo sapiens, MDA-MB-231, 48 h.
Description: Growth inhibition of human MDA-MB-231 cells after 48 hrs by MTT assay
Test [2] deals with T1, Epidermal growth factor receptor (Homo sapiens, UniProt P00533). As to conditions: at 150 nM.
Test [3] concerns the target T1, Epidermal growth factor receptor. Briefly: biochemical. Format: cell-based.
The species named for test [4] is Homo sapiens. To be noted: at 10 µM.
Description: Inhibition of TNFalpha-stimulated NF-kappaB (unknown origin) expressed in human U937 cells at 10 uM incubated for 3 hrs followed by TNFalpha stimulation measured after 2.5 hrs by luciferase reporter gene assay
A short description of test [5]: cells. Format: cell-based. To be noted: Homo sapiens, U-937.
Description: Inhibition of TNFalpha-stimulated NF-kappaB (unknown origin) expressed in human U937 cells incubated for 3 hrs followed by TNFalpha stimulation measured after 2.5 hrs by luciferase reporter gene assay

A word on the GI50: it is the concentration that inhibits growth by half. The inhibition is the relative decrease from the control value, in per cent. Higher therefore signals a response far below the control. As usually defined, the IC50 is the midpoint of a concentration-inhibition curve. Low readings indicate inhibition by little substance, high ones a need for much substance.

T1 sequence (P00533 whole entry): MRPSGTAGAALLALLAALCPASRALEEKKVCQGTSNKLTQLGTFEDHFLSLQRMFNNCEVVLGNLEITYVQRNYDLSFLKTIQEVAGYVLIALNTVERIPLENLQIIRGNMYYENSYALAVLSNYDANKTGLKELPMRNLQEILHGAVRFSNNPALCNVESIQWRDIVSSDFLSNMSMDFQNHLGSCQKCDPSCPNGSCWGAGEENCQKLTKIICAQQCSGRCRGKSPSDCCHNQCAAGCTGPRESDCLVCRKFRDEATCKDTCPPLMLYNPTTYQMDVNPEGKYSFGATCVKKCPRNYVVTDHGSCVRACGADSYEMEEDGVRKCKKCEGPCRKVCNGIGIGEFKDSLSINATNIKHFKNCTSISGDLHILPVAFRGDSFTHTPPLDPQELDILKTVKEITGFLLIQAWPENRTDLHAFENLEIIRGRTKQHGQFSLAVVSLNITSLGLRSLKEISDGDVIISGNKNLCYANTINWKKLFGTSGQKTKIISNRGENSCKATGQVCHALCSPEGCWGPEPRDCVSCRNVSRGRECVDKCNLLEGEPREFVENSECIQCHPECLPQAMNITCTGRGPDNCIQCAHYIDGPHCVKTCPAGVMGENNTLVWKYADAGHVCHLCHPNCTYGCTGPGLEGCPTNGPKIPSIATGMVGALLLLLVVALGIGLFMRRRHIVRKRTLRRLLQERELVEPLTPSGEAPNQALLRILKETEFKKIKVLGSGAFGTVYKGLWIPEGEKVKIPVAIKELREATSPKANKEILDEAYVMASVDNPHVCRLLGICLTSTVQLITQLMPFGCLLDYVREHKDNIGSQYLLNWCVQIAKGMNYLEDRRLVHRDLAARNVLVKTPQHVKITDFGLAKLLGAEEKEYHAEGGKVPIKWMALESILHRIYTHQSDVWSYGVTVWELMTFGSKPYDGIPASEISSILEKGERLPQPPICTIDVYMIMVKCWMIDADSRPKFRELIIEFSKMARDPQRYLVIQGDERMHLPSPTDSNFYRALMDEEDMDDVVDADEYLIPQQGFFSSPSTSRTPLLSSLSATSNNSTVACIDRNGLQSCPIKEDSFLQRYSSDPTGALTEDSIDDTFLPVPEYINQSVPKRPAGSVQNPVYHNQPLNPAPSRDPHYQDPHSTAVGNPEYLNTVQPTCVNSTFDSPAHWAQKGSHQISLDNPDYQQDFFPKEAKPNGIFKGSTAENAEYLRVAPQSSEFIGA

For the molecule `O=S(=O)(Nc1nccs1)c1ccc(NC(=S)Nc2ccc3ncnc(Nc4cccc(Br)c4)c3c2)cc1`, in test [1], the GI50 was more than 30 µM. The inhibition was determined as 81.7% in test [2] and 16.5% in test [4]. In test [3], the IC50 was determined as 22 nM.
The corresponding values for `S=C(NCc1ccccc1)Nc1ccc2ncnc(Nc3ccc(Oc4ccccc4)cc3)c2c1` are 6.8 µM, 21.9%, 73.7% and more than 150 nM.
With `S=C(Nc1ccc(Cl)c(Cl)c1)Nc1ccc2ncnc(Nc3cccc(Br)c3)c2c1`, growth in test [1] was halved (GI50) at 4.8 µM. Besides, the figures for the inhibition in test [2] and in test [4] were 52.9% and 97.2%, respectively. The IC50 in test [3] came out at 133 nM; in test [5] it was 1.9 µM.
On the same counts, the results for `S=C(NCc1ccccc1)Nc1ccc2ncnc(Nc3ccc(-c4ccccc4)cc3)c2c1` are 8.4 µM, 14.5%, 89.1%, more than 150 nM and 4.4 µM.
Regarding `CC(C)(C)c1ccc(Nc2ncnc3ccc(NC(=S)NCc4ccccc4)cc23)cc1`, halving of growth in test [1] (GI50) required 8.7 µM. For the same molecule, the inhibition is 0.9% in test [2] and 91.9% in test [4]. The IC50 in test [3] was more than 150 nM; in test [5] it was 5.51 µM.
Turning to `Fc1c(NC(=S)Nc2ccc3ncnc(Nc4cccc(Br)c4)c3c2)cccc1C(F)(F)F`, the GI50 in test [1] came out at 0.4 µM. In test [5], the IC50 came to 1.3 µM. For the same molecule, the inhibition in test [4] turned out to be 98%.
In turn, `O=S(=O)(Nc1ccccn1)c1ccc(Nc2ncnc3ccc(NC(=S)NCc4ccccc4)cc23)cc1` yielded a GI50 in test [1] of more than 30 µM. The figures for the inhibition in test [2] and in test [4] were 20.9% and 6.6%, respectively. Besides, the IC50 in test [3] is more than 150 nM.
Molecule `S=C(Nc1cccnc1)Nc1ccc2ncnc(Nc3cccc(Br)c3)c2c1` yielded a GI50 in test [1] of more than 30 µM. Also, the values for the inhibition in test [2] and in test [4] were 90.4% and 42.4%, respectively. The molecule further gave an IC50 in test [3] of 10.2 nM.
In test [1], `S=C(Nc1ccc(Cl)cc1)Nc1ccc2ncnc(Nc3cccc(Br)c3)c2c1` came in with a GI50 of 8.2 µM. Further, the inhibition in test [2] stood at 79.6%; in test [4] it was 89.5%. Besides, the IC50 in test [3] is 19.5 nM; in test [5] it was 4.9 µM.
Take `S=C(Nc1ccc2ncnc(Nc3cccc(Br)c3)c2c1)Nc1ccc(Cl)cc1Cl`: the GI50 in test [1] worked out at 12.2 µM. The inhibition turned out to be 66% in test [2] and 93.1% in test [4]. Further, the IC50 in test [3] is 48.9 nM; in test [5] it was 2.9 µM.
`C=CC(=O)Nc1ccc2ncnc(Nc3cccc(C)c3F)c2c1` had an IC50 in test [3] of 1.5 nM. Further, the inhibition in test [4] was 70%.
Consider `CCc1cccc(Nc2ncnc3ccc(NC(=S)NCc4ccccc4)cc23)c1`, for which, in test [1], it took 10.5 µM to inhibit growth by half (GI50). The inhibition came to 41.7% in test [2] and 92.5% in test [4]. Also, the figures for the IC50 in test [3] and in test [5] were more than 150 nM and 4.8 µM, respectively.
`Oc1cccc(Nc2ncnc3ccc(NC(=S)NCc4ccccc4)cc23)c1` returned a GI50 in test [1] of more than 30 µM. Besides, the results for the inhibition in test [2] and in test [4] were 60.8% and 44.3%, respectively. This molecule had an IC50 in test [3] of 63.6 nM.
In test [1], `FC(F)(F)c1cc(NC(=S)Nc2ccc3ncnc(Nc4cccc(Br)c4)c3c2)ccc1Cl` showed a GI50 of 1.1 µM. Moreover, the inhibition in test [2] is 44%; in test [4], 99%. Further, the IC50 in test [3] is more than 150 nM; in test [5] it was 1.7 µM.
Turning to `C=CC(=O)Nc1ccc2ncnc(Nc3ccc(Br)cc3F)c2c1`, the IC50 in test [3] stood at 2.1 nM. In test [4], this molecule displayed an inhibition of 73.6%.
`CC(C)c1ccc(Nc2ncnc3ccc(NC(=S)NCc4ccccc4)cc23)cc1`: the GI50 in test [1] is 12.8 µM. The inhibition is 4.2% in test [2] and 95.7% in test [4]. Moreover, the figures for the IC50 in test [3] and in test [5] were more than 150 nM and 4.3 µM, respectively.
With `O=C(Nc1ccc2ncnc(Nc3cccc(Br)c3)c2c1)c1ccco1`, the IC50 in test [3] came to 8.4 nM. The inhibition in test [4] stood at 39.4%.
In test [1], `Cc1cccc(Nc2ncnc3ccc(NC(=S)NCc4ccccc4)cc23)c1C` yielded a GI50 of 28.7 µM. The values for the inhibition in test [2] and in test [4] were 40% and 71.5%, respectively. Moreover, in test [3], the IC50 was more than 150 nM.
`S=C(NCc1ccc(Cl)cc1)Nc1ccc2ncnc(Nc3cccc(Br)c3)c2c1` came in with a GI50 in test [1] of 23 µM. Also, the inhibition in test [2] turned out to be 77.5%; in test [4], 78.6%. In test [3], this molecule displayed an IC50 of 28.3 nM.
`CNC(=S)Nc1ccc2ncnc(Nc3cccc(Br)c3)c2c1`: in test [1], the GI50 was more than 30 µM. The values for the inhibition in test [2] and in test [4] were 92.2% and 3%, respectively. In test [3], this molecule registered a half-inhibitory concentration (IC50) of 9.1 nM.
The corresponding values for `S=C(NCCN1CCOCC1)Nc1ccc2ncnc(Nc3cccc(Br)c3)c2c1` are more than 30 µM, 91.8%, 20.9% and 10.7 nM.
`S=C(Nc1ccc2ncnc(Nc3cccc(Br)c3)c2c1)N1CCOCC1` came in with a GI50 in test [1] of more than 30 µM. Besides, the inhibition in test [2] worked out at 84%; in test [4] it was 40.1%. Besides, the IC50 in test [3] was 26.9 nM.
On the same counts, the results for `Cc1cccc(Nc2ncnc3ccc(NC(=S)NCc4ccccc4)cc23)c1` are 19.5 µM, 68.5%, 76.4% and 36.8 nM.
The corresponding values for `N=C(N)NS(=O)(=O)c1ccc(Nc2ncnc3ccc(NC(=S)NCc4ccccc4)cc23)cc1` are more than 30 µM, 6.7%, 21.7% and more than 150 nM.
In test [4], `COc1ccc(C(=O)Nc2ccc3ncnc(Nc4cccc(Br)c4)c3c2)cc1` showed an inhibition of 33.2%.
`O=C(NCc1ccccc1)Nc1ccc2ncnc(Nc3cccc(Br)c3)c2c1` gave a GI50 in test [1] of more than 30 µM. Further, the inhibition in test [2] was found to be 89.9%; in test [4], 42.6%. Besides, in test [3], inhibition was half-maximal at 8.9 nM (IC50).
For `O=C(Nc1ccc(Cl)cc1)Nc1ccc2ncnc(Nc3cccc(Br)c3)c2c1`, in test [1], the GI50 was 10 µM. The inhibition in test [2] turned out to be 69%; in test [4], 50.3%. In test [3], this molecule displayed an IC50 of 19.3 nM.
On the same counts, the results for `NS(=O)(=O)c1ccc(NC(=S)Nc2ccc3ncnc(Nc4cccc(Br)c4)c3c2)cc1` are more than 30 µM, 92.3%, 29% and 9.5 nM.
In turn, `S=C(NCc1ccccc1)Nc1ccc2ncnc(Nc3cccc(Cl)c3)c2c1` showed a GI50 in test [1] of 7.3 µM. Further, the IC50 in test [5] stood at 3.7 µM. For the same molecule, the inhibition in test [4] is 89.7%.
`S=C(NCc1ccccc1)Nc1ccc2ncnc(Nc3cccnc3)c2c1` had a GI50 in test [1] of 17.9 µM. Moreover, the inhibition is 38.5% in test [2] and 7.7% in test [4]. Also, the IC50 in test [3] was more than 150 nM.
The corresponding values for `Oc1ccc(Nc2ncnc3ccc(NC(=S)NCc4ccccc4)cc23)cc1` are 27 µM, 44.1%, 24.1% and more than 150 nM.
Molecule `NS(=O)(=O)c1ccc(Nc2ncnc3ccc(NC(=S)NCc4ccccc4)cc23)cc1` displayed a GI50 in test [1] of more than 30 µM. Further, the inhibition stood at 17.7% in test [2] and 19.2% in test [4]. Also, the IC50 in test [3] was more than 150 nM.
